Assay results from patent US5700478A, “Water-soluble pressure-sensitive mucoadhesive and devices provided therewith for emplacement in a mucosa-lined body cavity” (Cygnus, Inc., priority 1995, dated 1997).
Where a name gives a salt, the structure may show the parent alone.

Experiments:
[1] = Transport through pig mucosa (Franz diffusion cells); format: in vitro ADME, porcine
Description: In this example, bilaminate mucoadhesive discs, containing as an active substance benzocaine or Dyclonine HCl, were affixed to porcine buccal mucosa and mounted on Franz diffusion cells as described in Example XIII. Avenge amounts of active substance was measured using HPLC, and percents were expressed as a percent of the total initially in the disc.
Particularly, the donor side of the cell was filled with pH 6 buffer and the receiver side was filled with phosphate buffered saline ("PBS"). Samples were taken from the receiver side every thirty minutes for three hours, and the samples were analyzed by HPLC. The average amount and the average percent of active substance appearing in the receiver side after three hours are shown in Table IV.

[2] = Transport through human stratum corneum (Franz diffusion cells); format: in vitro ADME
Description: In this example, bilaminate mucoadhesive discs, containing as an active substance benzocaine or Dyclonine HCl, were affixed to human stratum corneum and mounted on Franz diffusion cells. The donor side of the cell was filled with pH 6 buffer and the receiver side was filled with PBS. Samples were taken from the receiver side and analyzed using HPLC, and the average amount and percentage of active substance appearing in the receiver cell were determined.

[3] = Release of benzocaine into distilled water: effect of polymer molecular weight; format: physicochemical; conditions: HPC 80 k vs. 300 k in active-containing layer, FIG. 11
Description: In this Example, bilaminate mucoadhesive discs containing benzocaine were constructed generally as described in Example IX, substituting benzocaine for Dyclonine. Discs were made using HPC both at the same molecular weight as described in Example 2 (80 k), and at a higher molecular weight (300 k), and the release into distilled water was tested as described in Example X. The results are shown in FIG. 11.

Average % Transported ([1]; 15% in bilaminate disc, % of drug initially in device, three hours, donor pH 6 buffer, receiver PBS)	Average Amount Delivered ([1]; pH 6)	Average % Transported ([2]; 15% in bilaminate disc, donor pH 6 buffer, receiver PBS)	Average Amount Delivered ([2]; pH 6)	Average % Transported ([1]; pH 6)	Average % Transported ([2]; pH 6)	SMILES	release rate of benzocaine vs. molecular weight of HPC [3]
3.29%	284.63 μg/cm^2	2.42%	255.56 μg/cm^2	–	–	CCOC(=O)c1ccc(N)cc1 [Benzocaine, benzocaine]	decrease in release rate of benzocaine with increasing molecular weight of HPC
–	282.77 μg/cm^2	–	14.60 μg/cm^2	3.94%	0.18%	CCCCOc1ccc(C(=O)CCN2CCCCC2)cc1 [Dyclonine HCl]	–
